The test system of test [1] is Omicron BA.2.3 variant. The test is described as follows: Antiviral activity assay (CPE) in Vero E6 cells, Omicron BA.2.3. It is filed as cell-based, SARS-CoV-2. Conditions: Severe acute respiratory syndrome coronavirus 2, Vero C1008, 48 h.
Test [2] concerns Omicron BA.1.1 variant. The test is described as follows: Antiviral activity assay (CPE) in Vero E6 cells, Omicron BA.1.1. Particulars: Severe acute respiratory syndrome coronavirus 2, Vero C1008, 48 h. It is filed as cell-based, SARS-CoV-2.

Take `C[C@@H]1O[C@@H](O[C@@H]2[C@@H](O)[C@H](OCCc3ccc(O)c(O)c3)O[C@H](CO)[C@H]2OC(=O)/C=C/c2ccc(O)c(O)c2)[C@H](O)[C@H](O)[C@H]1O` [Acteoside]: the EC50 in test [1] was determined as 70.4 µM; in test [2] it was 41.3 µM.

Broadly, the EC50 is the concentration needed to bring the measured effect to its halfway point. Read a low EC50 as higher potency in that assay.

(Values after PMC10394814, “Discovery and evaluation of active compounds from Xuanfei Baidu formula against COVID-19 via SARS-CoV-2 M^pro” (Chinese Medicine, 2023).)
